Laboratory results taken from US20230149515A1, “INHIBITION OF SARS-COV-2 VIRAL ENTRY THROUGH ORAL ADMINISTRATION OF L[…] USES THEREOF” (priority 2020, published 2023).

Tested on: SARS-CoV-2
Format: cell-based
Details: positive control; Huh7 cells; FIG. 1 (50 nanomolar Remdesivir)

Question: `CCC(CC)COC(=O)[C@H](C)N[P@](=O)(OC[C@H]1O[C@@](C#N)(c2ccc3c(N)ncnn23)[C@H](O)[C@@H]1O)Oc1ccccc1` [Remdesivir, reference compound] was tested. Which “efficacy in SARS-CoV-2 infectivity assay” value did it give?
Answer: Its value is 100%.
